Assay results: PubChem BioAssay (NCI)
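Test compounds were applied to cells in 96-well plates for 48 hours at 5 doses. Here, GI50 denotes the concentration required for 50% inhibition of growth. TGI: concentration producing complete growth inhibition.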

Each compound was assayed on MDA-MB-468 breast (assay: inhibition of tumour cell growth, NCI panel, 48 h).

| SMILES | GI50 [µM] | TGI [µM] |
| --- | --- | --- |
| NCCCCC1NC(=O)C(CC(=O)O)NC(=O)CNC(=O)C(CCCN=C(N)N)NC(=O)C(N)CSSCC(C(=O)O)NC(=O)C(CC(=O)O)NC(=O)C2CCCN2C(=O)CNC1=O (stereo not given) | > 100 | > 100 |
| CC(C)c1nc(N(C)S(C)(=O)=O)nc(-c2ccc(F)cc2)c1/C=C/[C@@H](O)C[C@@H](O)CC(=O)O | 18.5 | 69.3 |
| CSc1ccc(/C(=N/N=C(N)N)c2ccccc2)cc1 | 0.451 | 8.6 |
| COC(=O)C12CC(NC(=O)c3csc([C@@H](C[C@H](C(C)C)N(C)C(=O)[C@@H](NC(=O)[C@H]4CCCCN4C)C4CC4)OC(C)=O)n3)(C1)C2 | 0.0169 | > 16.7 |
| CCN1CCN(c2cc(C)nc(N(CCCNc3ccnc4cc(Cl)ccc34)Cc3ccc4c(c3)OCO4)n2)CC1 | 1.82 | 4.25 |
| O=S1(=O)N(Cc2ccccc2)[C@@H](Cc2ccccc2)[C@H](O)[C@H](O)[C@H](Cc2ccccc2)N1Cc1ccccc1 | 2.98 | 7.17 |
| CN(Cc1ccc(C(F)(F)F)cc1)CC(O)C(=O)Nc1ccc(Cl)cc1 (stereo not given) | 1.37 | 2.91 |
| CCN1CCN(Cc2ccc(NC(=O)Nc3nc4ccc(Oc5ccnc(C(=O)NC)c5)cc4s3)cc2C(F)(F)F)CC1 | 1.66 | 3.2 |
| NS(=O)(=O)c1ccc(N=Nc2c(O)[nH]c3ccc(C(=O)NCc4ccncc4)cc23)cc1 | > 25 | > 25 |
| CCCCCCCCOC(=O)c1c(C)[nH]c(/C=C2\N=C(c3ccc[nH]3)C=C2OC)c1C | 0.0868 | 2.67 |
| CN(C)CCNC(=O)c1ccc(-c2nc3ccc4[nH]ncc4c3c3c2C2CCC3C2)cc1 (stereo not given) | 1.12 | 3.14 |
| C#CCNC(=S)N/N=C(\C)c1ccccn1 | 0.0335 | 0.273 |
| c1cc(-c2nnc(SSc3ncnc4nc[nH]c34)o2)ccn1 | 0.251 | 0.967 |
| CCC(C)Oc1nc2c(c(=O)n(C)c(=O)n2C)n1C (stereo not given) | > 100 | > 100 |
| CC(Nc1c(C#N)cnc2ccc(-c3cncc(-c4n[nH]c(=O)o4)c3)cc12)c1ccccc1 (stereo not given) | 1.23 | 3.66 |
| C=C/C(C)=C/C[C@]1(C)[C@H](C)[C@@H](OC(=O)CCC)[C@H](O)[C@@]23C(=C[C@H](OC)C[C@@H]12)[C@@H](OC(=O)CCC)O[C@H]3OC(C)=O | 0.337 | 1.24 |
| CCn1c(-c2cc3c([nH]c4ccccc43)c(-c3cccc(O)c3)n2)n[nH]c1=S | 3.19 | 15.2 |
| CSc1ncc(Br)c(Sc2nc(N)nc3nc[nH]c23)n1 | 2.36 | 19.7 |
| NC(=O)[C@@H](CC1CC1)[C@@H](CCC(F)(F)F)C(=O)N[C@H]1N=C(c2ccccc2)c2cccc(F)c2NC1=O | > 100 | > 100 |
| C=C1C(=O)O[C@H]2[C@H]1CC/C(COC(=O)NCc1ccc(OC)cc1)=C\CC[C@@]1(C)O[C@@H]21 | 0.352 | 1.75 |

| SMILES | GI50 [µM] | TGI [µM] |
| --- | --- | --- |
| CCN(Cc1cc(F)ccc1F)c1ccc(CO)c(Cl)c1 | 0.0164 | 0.0411 |
| CN1CCN(Cc2ccc(NC(=O)c3cncc(C#Cc4cnc(N)cc4C#N)c3)cc2C(F)(F)F)CC1 | 2.01 | 5.3 |
| C1=C/COCc2cc(ccc2OCCN2CCCC2)Nc2nccc(n2)-c2ccc(o2)COC/1 | 1.49 | 3.18 |
| CN1CCN(CCOc2ccc(-c3cnc4c(-c5cccc(F)c5)cnn4c3)cc2)CC1 | 1.67 | 3.25 |
| Cc1cc(C)c2c(n1)sc1c(N)ncnc12 | 19.9 | > 25 |
| O=C(/C=C/c1ccc(C(F)(F)F)cc1)Nc1ccc(C=C2c3ccccc3C(=O)c3ccccc32)cc1 | 1.99 | 20.8 |
| COc1cccc(CN(C)c2ccc(CO)c(Cl)c2)c1 | 0.0209 | 0.06 |
| Cc1cc(Nc2nc(C(=O)Nc3ccccc3)nc3ccccc23)n[nH]1 | 9.15 | > 25 |
| CC1CN(S(=O)(=O)c2oc(-c3ccc(Cl)cc3)nc2C#N)CC(C)O1 (stereo not given) | 1.87 | 4.16 |
| N#C/C(=C\c1ccc([N+](=O)[O-])s1)c1nc2cc(Cl)ccc2s1 | 2.36 | 5.76 |
| Cc1ccc2nc(-c3ccc(OCC(=O)N=Nc4c(O)[nH]c5ccccc45)cc3)[nH]c2c1 | 2.09 | 4.9 |
| O=C(Nc1ccc(-n2ccc3c(NC(=O)c4ccccc4)ncnc32)cc1)c1cccc(C(F)(F)F)c1 | 4.05 | 20.4 |
| COc1ccc(/C=C/C(=O)c2ccc(-n3cc(CN4CCN(c5cc6c(cc5F)c(=O)c(C(=O)O)cn6C5CC5)CC4)nn3)cc2)cc1OC | 1.96 | 5.24 |
| O=C1C2=C(C(=O)c3cnccc31)C1C=CC2CC1 (stereo not given) | 0.185 | 0.416 |
| COc1cc2ncnc(-n3ncc4cc(NC(=O)Nc5ccc(Cl)c(Cl)c5)ccc43)c2cc1OC | 2.17 | 4.52 |
| Cc1ncc(C(=O)Nc2ccc(CN3CCN(C)CC3)c(C(F)(F)F)c2)cc1C#Cc1ccc(N)nc1 | 0.368 | 2.12 |
| CC1=C2C(=CC(C)(C)[C@@H]2O)C(=O)[C@](C)(O)C12CC2 | 0.0129 | 0.0362 |
| COC(=O)C(CCC(=O)CCl)N1C(=O)c2ccccc2C1=O (stereo not given) | 2.11 | 5.61 |
| CCCCCN(CCCCC)CC(O)c1cc(Cl)ccc1OC (stereo not given) | 9.71 | 23.1 |
| O=C(Nc1ccc(F)cc1F)c1cc(Cl)ccc1O | 1.64 | 5.07 |
